Here are results for one compound from patent US20160058751A1, “COMPOSITION AND METHOD FOR TREATING CANCER” (CELLWORKS GROUP, INC., priority 2013, published 2016).

For data set [1] the following is noted: cited from earlier work.
The subject of data set [2] is H1650 human lung cancer cell line. As to the kind of experiment: CellTiter 96 Aqueous One relative growth assay. The class given is cell-based.
Data set [3] concerns CaCo-2 human colon cancer cell line. As to the kind of experiment: CellTiter 96 Aqueous One relative growth assay. The class given is cell-based. As to conditions: Sorafenib up to 5 μM, Atorvastatin up to 40 μM.
In data set [4] the test system is SW48 human colon cancer cell line. As to the kind of experiment: CellTiter 96 Aqueous One relative growth assay. Type of data set: cell-based. The text has this:
The SW48 human colon cancer cell line was procured from ATCC (American Type Culture Collection, Manassas, Va.).

In data set [5] the test system is HCT116 xenograft. Briefly: mouse xenograft model of HCT116.
For data set [6], the system named is HCT116 human colon cancer cell line. As to the kind of experiment: CellTiter 96 Aqueous One relative growth assay.
Data set [7] concerns CAPAN1 xenograft. As to the kind of experiment: mouse xenograft model of CAPAN1.
Data set [8] relates to A549 human lung cancer cell line. Briefly: CellTiter 96 Aqueous One relative growth assay. The class given is cell-based.
Where [9] appears, read: oral 100 mg solution formulation.
Setting [10] is: BMS-303141 up to 20 μM, Sorafenib 3 μM and 5 μM.
Setting [11] is: Sorafenib up to 5 μM, Atorvastatin up to 40 μM.

Structures are written as SMILES.

With `CNC(=O)c1cc(Oc2ccc(NC(=O)Nc3ccc(Cl)c(C(F)(F)F)c3)cc2)ccn1` [Sorafenib, 4-[4-[[4-chloro-3-(trifluoromethyl)phenyl]carbamoylamino]phenoxy]-N-methylpyridine-2-carboxamide], the “bioavailability reduced by” value in data set [1] (high-fat meal compared to fasted state) was “about 29%”. In data set [1] (in vivo), the Half-life is 25 to 48 h. Moreover, in data set [1] (setting [9]), the “dose excreted in feces” value is listed as 77% and the “dose excreted in urine as glucuronidated metabolites” value was 19%. The dose recovered in data set [1] (oral 100 mg solution formulation, within 14 days) is on record as 96%. In addition, in data set [1] (plasma, steady-state), the “share of the circulating analytes in plasma at steady-state” value is recorded as 70-85%. In data set [2] (setting [10]), the “cell viability (FIG. 79)” value is listed as “minor decrease”. For the same compound, the “cell viability (FIG. 72)” value in data set [2] (setting [11]) is given as “negligible decrease”. Besides, the “cell viability (FIG. 74)” value in data set [3] is “negligible effect”. Further, the “cell viability (FIG. 81)” value in data set [4] (setting [10]) is reported as “minimal decrease”. Further, the “cell viability (FIG. 75)” value in data set [4] (Sorafenib up to 5 μM, Atorvastatin up to 10 μM) is reported as “negligible effect”. Moreover, in data set [5], the body weight entry is listed as “not significantly affected” and the “survival (Kaplan-Meier survival curve)” value is recorded as “prolonged survival rates”. Moreover, in data set [5] (at 19 days), the “inhibition of tumor volume / tumor growth” value is listed as 16%. Also, in data set [6] (setting [10]), the “cell viability (FIG. 80)” value is listed as “a decrease”. In data set [6] (setting [11]), the “cell viability (FIG. 73)” value is given as “insignificant decrease”. Further, in data set [7], the body weight result is reported as “not significantly affected” and the “survival (Kaplan-Meier survival curve)” value was “slightly prolonged survival rates”. Moreover, the “cell viability (FIG. 78)” value in data set [8] (setting [10]) is “negligible decrease”. In data set [8] (setting [11]), the “cell viability (FIG. 71)” value is reported as “negligible decrease”.
